Starred links: 1 amine or outer side, 2 acyl side, 3 side chain; linkers in the order of their positions; H or OH if unused. Positions of bridges follow the written chain, without caps; N, C: chain ends. Non-standard residues stand in square brackets, D forms with d. Residues, ends and D or L forms follow the SMILES beside them. X39 = O=C([C@H](CNC[C@H](O)[C@@H](O)[C@H](O)C(O)CO[C@H]1O[C@H](CO)[C@H](O)[C@H](O)[C@H]1O)N[*:1])[*:2]; X56 = O=C([C@H](CCNC[C@@H](O)[C@H](O)[C@@H](O)[C@@H](O)[C@H](O)CO)N[*:1])[*:2]; X49 = O=C([C@H](CNC[C@@H](O)[C@H](O)[C@@H](O)[C@@H](O)[C@H](O)CO)N[*:1])[*:2]; X41 = O=C([C@H](CCNC1[C@@H](O)[C@@H](O)[C@@H](O)[C@H](O)[C@H]1O)N[*:1])[*:2]; X40 = O=C([C@H](CNC1[C@@H](O)[C@@H](O)[C@@H](O)[C@H](O)[C@H]1O)N[*:1])[*:2]; X50 = O=C([C@H](CNC[C@@H](O)[C@@H](O)[C@H](O)[C@H](O)C(O)CO)N[*:1])[*:2]; X44 = O=C([C@H](CCNC[C@@H](O)[C@H](O)[C@@H](O)[C@@H](O)CO)N[*:1])[*:2]; X43 = O=C([C@H](CNC[C@@H](O)[C@H](O)[C@@H](O)[C@@H](O)CO)N[*:1])[*:2]; X9 = O=C([C@H](CCNC[C@@H](O)[C@@H](O)[C@@H](O)[C@H](O)CO)N[*:1])[*:2]; X59 = O=C([C@H](CCNC[C@H](O)[C@@H](O)[C@H](O)[C@H](O)CO)N[*:1])[*:2]; X8 = O=C([C@H](CNC[C@@H](O)[C@@H](O)[C@@H](O)[C@H](O)CO)N[*:1])[*:2]; X58 = O=C([C@H](CNC[C@H](O)[C@@H](O)[C@H](O)[C@H](O)CO)N[*:1])[*:2]; Trp(1-CH2COOH) = N[C@@H](Cc1cn(CC(=O)O)c2ccccc12)C(=O)O; Hyp = O=C(O)[C@@H]1C[C@@H](O)CN1; NMeNle = CCCC[C@H](NC)C(=O)O; NMeA = CN[C@@H](C)C(=O)O; Dab = NCC[C@H](N)C(=O)O
Molecular target: T1, PD-1/PD-L1 (Homo sapiens, UniProt Q9NZQ7)
T1 construct: TVMV protease site (linker) (C); made in house; host or cells: HEK293T cells
T1 sequence (Q9NZQ7 18-239): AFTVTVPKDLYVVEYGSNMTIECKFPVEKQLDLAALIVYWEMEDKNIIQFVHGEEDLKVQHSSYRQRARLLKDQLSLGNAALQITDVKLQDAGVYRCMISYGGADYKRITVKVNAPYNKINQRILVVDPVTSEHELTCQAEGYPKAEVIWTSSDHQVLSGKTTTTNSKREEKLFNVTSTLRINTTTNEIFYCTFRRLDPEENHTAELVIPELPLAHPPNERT
Assay: PD-1/PD-L1 Homogenous Time-Resolved Fluorescence (HTRF) binding assay
Conditions: PD-L1-His 10 nM, PD-1-Ig 20 nM
Outline: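 Compounds preincubated 15 min with PD-L1-His (residues 18-239, 10 nM) in dPBS with 0.1% BSA, 0.05% Tween-20, then PD-1-Ig (residues 25-167, 20 nM) for 15 min. Eu-cryptate anti-Ig (1 nM) and APC anti-His (20 nM) equilibrated 30 min; 665/620 nm ratio read, IC50 derived.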

Row | SMILES | IC50
1 | CCCC[C@H]1C(=O)N(C)[C@@H](CCCC)C(=O)N[C@@H](CC(C)C)C(=O)N[C@H](C(=O)NCC(N)=O)CSCC(=O)N[C@@H](Cc2ccc(O)cc2)C(=O)N(C)[C@@H](C)C(=O)N[C@@H](CC(N)=O)C(=O)N2CCC[C@H]2C(=O)N[C@@H](CNC[C@@H](O)[C@H](O)[C@@H](O)[C@@H](O)[C@H](O)CO)C(=O)N[C@@H](CC(C)C)C(=O)N2C[C@H](O)C[C@H]2C(=O)N[C@@H](Cc2c[nH]c3ccccc23)C(=O)N[C@@H](CCNC[C@@H](O)[C@H](O)[C@@H](O)[C@@H](O)[C@H](O)CO)C(=O)N[C@@H](Cc2cn(CC(=O)O)c3ccccc23)C(=O)N1C [Example 2029] ({CH2CO}-Y[NMeA]NP[X49]L[Hyp]W[X56][Trp(1-CH2COOH)][NMeNle][NMeNle]LCG-NH2; thioether N-14) | 8.5 nM
2 | CCCC[C@H]1C(=O)N(C)[C@@H](CCCC)C(=O)N[C@@H](CC(C)C)C(=O)N[C@H](C(=O)NCC(N)=O)CSCC(=O)N[C@@H](Cc2ccc(O)cc2)C(=O)N(C)[C@@H](C)C(=O)N[C@@H](CC(N)=O)C(=O)N2CCC[C@H]2C(=O)N[C@@H](CNC[C@@H](O)[C@@H](O)[C@H](O)[C@H](O)C(O)CO)C(=O)N[C@@H](CC(C)C)C(=O)N2C[C@H](O)C[C@H]2C(=O)N[C@@H](Cc2c[nH]c3ccccc23)C(=O)N[C@@H](CCN)C(=O)N[C@@H](Cc2cn(CC(=O)O)c3ccccc23)C(=O)N1C (stereo partly shown) [Example 2031] ({CH2CO}-Y[NMeA]NP[X50]L[Hyp]W[Dab][Trp(1-CH2COOH)][NMeNle][NMeNle]LCG-NH2; thioether N-14) | 9.1 nM
3 | CCCC[C@H]1C(=O)N(C)[C@@H](CCCC)C(=O)N[C@@H](CC(C)C)C(=O)N[C@H](C(=O)NCC(N)=O)CSCC(=O)N[C@@H](Cc2ccc(O)cc2)C(=O)N(C)[C@@H](C)C(=O)N[C@@H](CC(N)=O)C(=O)N2CCC[C@H]2C(=O)N[C@@H](CNC[C@H](O)[C@@H](O)[C@H](O)[C@H](O)CO)C(=O)N[C@@H](CC(C)C)C(=O)N2C[C@H](O)C[C@H]2C(=O)N[C@@H](Cc2c[nH]c3ccccc23)C(=O)N[C@@H](CCNC[C@H](O)[C@@H](O)[C@H](O)[C@H](O)CO)C(=O)N[C@@H](Cc2cn(CC(=O)O)c3ccccc23)C(=O)N1C [Example 2032] ({CH2CO}-Y[NMeA]NP[X58]L[Hyp]W[X59][Trp(1-CH2COOH)][NMeNle][NMeNle]LCG-NH2; thioether N-14) | 5.3 nM

Next, values leading:

Row | IC50 | SMILES
4 | 8.8 nM | CCCC[C@H]1C(=O)N(C)[C@@H](CCCC)C(=O)N[C@@H](CC(C)C)C(=O)N[C@H](C(=O)NCC(N)=O)CSCC(=O)N[C@@H](Cc2ccc(O)cc2)C(=O)N(C)[C@@H](C)C(=O)N[C@@H](CC(N)=O)C(=O)N2CCC[C@H]2C(=O)N[C@@H](CNC2[C@@H](O)[C@@H](O)[C@@H](O)[C@H](O)[C@H]2O)C(=O)N[C@@H](CC(C)C)C(=O)N2C[C@H](O)C[C@H]2C(=O)N[C@@H](Cc2c[nH]c3ccccc23)C(=O)N[C@@H](CCNC2[C@@H](O)[C@@H](O)[C@@H](O)[C@H](O)[C@H]2O)C(=O)N[C@@H](Cc2cn(CC(=O)O)c3ccccc23)C(=O)N1C (stereo partly shown) [Example 2033] ({CH2CO}-Y[NMeA]NP[X40]L[Hyp]W[X41][Trp(1-CH2COOH)][NMeNle][NMeNle]LCG-NH2; thioether N-14)
5 | 2.7 nM | CCCC[C@H]1C(=O)N(C)[C@@H](CCCC)C(=O)N[C@@H](CC(C)C)C(=O)N[C@H](C(=O)NCC(N)=O)CSCC(=O)N[C@@H](Cc2ccc(O)cc2)C(=O)N(C)[C@@H](C)C(=O)N[C@@H](CC(N)=O)C(=O)N2CCC[C@H]2C(=O)N[C@@H](CNC[C@@H](O)[C@H](O)[C@@H](O)[C@@H](O)CO)C(=O)N[C@@H](CC(C)C)C(=O)N2C[C@H](O)C[C@H]2C(=O)N[C@@H](Cc2c[nH]c3ccccc23)C(=O)N[C@@H](CCNC[C@@H](O)[C@H](O)[C@@H](O)[C@@H](O)CO)C(=O)N[C@@H](Cc2cn(CC(=O)O)c3ccccc23)C(=O)N1C [Example 2034] ({CH2CO}-Y[NMeA]NP[X43]L[Hyp]W[X44][Trp(1-CH2COOH)][NMeNle][NMeNle]LCG-NH2; thioether N-14)
6 | 4.9 nM | CCCC[C@H]1C(=O)N(C)[C@@H](CCCC)C(=O)N[C@@H](CC(C)C)C(=O)N[C@H](C(=O)NCC(N)=O)CSCC(=O)N[C@@H](Cc2ccc(O)cc2)C(=O)N(C)[C@@H](C)C(=O)N[C@@H](CC(N)=O)C(=O)N2CCC[C@H]2C(=O)N[C@@H](CNC[C@@H](O)[C@@H](O)[C@@H](O)[C@H](O)CO)C(=O)N[C@@H](CC(C)C)C(=O)N2C[C@H](O)C[C@H]2C(=O)N[C@@H](Cc2c[nH]c3ccccc23)C(=O)N[C@@H](CCNC[C@@H](O)[C@@H](O)[C@@H](O)[C@H](O)CO)C(=O)N[C@@H](Cc2cn(CC(=O)O)c3ccccc23)C(=O)N1C [Example 2036] ({CH2CO}-Y[NMeA]NP[X8]L[Hyp]W[X9][Trp(1-CH2COOH)][NMeNle][NMeNle]LCG-NH2; thioether N-14)
7 | 11 nM | CCCC[C@H]1C(=O)N(C)[C@@H](CCCC)C(=O)N[C@@H](CC(C)C)C(=O)N[C@H](C(=O)NCC(N)=O)CSCC(=O)N[C@@H](Cc2ccc(O)cc2)C(=O)N(C)[C@@H](C)C(=O)N[C@@H](CC(N)=O)C(=O)N2CCC[C@H]2C(=O)N[C@@H](CNC[C@H](O)[C@@H](O)[C@H](O)C(O)CO[C@H]2O[C@H](CO)[C@H](O)[C@H](O)[C@H]2O)C(=O)N[C@@H](CC(C)C)C(=O)N2C[C@H](O)C[C@H]2C(=O)N[C@@H](Cc2c[nH]c3ccccc23)C(=O)N[C@@H](CCN)C(=O)N[C@@H](Cc2cn(CC(=O)O)c3ccccc23)C(=O)N1C (stereo partly shown) [Example 2037] ({CH2CO}-Y[NMeA]NP[X39]L[Hyp]W[Dab][Trp(1-CH2COOH)][NMeNle][NMeNle]LCG-NH2; thioether N-14)

From patent US20230242585A1, “IMMUNOMODULATORS” (Bristol-Myers Squibb Company, priority 2020, published 2023)
